Where no end group is shown, it is not given here.
Experiments:
AKT = AKT (Homo sapiens, UniProt P31749); assay: in vitro AKT kinase assay with Ser-9 GSK-3 GST fusion protein substrate; PKAc peptide library screen; format: biochemical; details: Ser-9 GSK-3 GST substrate
AKT2 = AKT2 (Homo sapiens, UniProt P31751); assay: in vitro kinase assay, selectivity; format: biochemical; design: dose or concentration left out as unconfirmed
Experimental: (§1) To test the specificity/selectivity of ZaTa as the inhibitor of AKT1 versus the other major kinases, a series of in vitro kinase assays was performed at IC50 for AKT1 and at ten times higher concentrations. A panel of the following 32 kinases was first tested in vitro using the active form of each kinase and a specific substrate: AKT2, AKT3, PKA, PKCα, PKCγ, PI3Kβ, PI3Kδ, PI3Kγ, SGK, PAK2, PAK3, SAPK2/p38, Abl, CaMKII, CDK1/cyclinB, CDK5/p35, CK1, CK2, CSK, GSK3α, GSK3β, JNK1α1, MAPK1, p70S6K, PDGFRα, PDGFRβ, PDK1, PKG1α, TrkB, JAK2, JAK3, and Syk. […] However, at ten times higher concentration, ZaTa inhibited AKT2 (63%), PI3Kδ (72%), p70S6K (64%), SGK (73%), PAK3 (83%), JAK3 (79%), TrkB (84%), and Abl (42%). To confirm the in vitro inhibitory effect on these kinases in cells, a cell-based assay was used to determine the effect of labeled ZaTa on the phosphorylation levels of well-known intracellular substrates for each kinase (Zipfel, et al. (2004) Curr. Biol. 14:1222-1231; Wang, et al. (2003) Arch. Biochem. Biophys. 410:7-15; King, et al. (1998) Nature 396:180-183; Rangone, et al. (2004)Eur. J. Neurosci. 19:273-279; Middlemas, et al. (1994)J. Biol. Chem. 269:5458-5466; Huang, et al. (1999) J. Biol. Chem. 274:7870-7878). The results of this cell-based kinase assay confirmed that ZaTa could inhibit p70S6K besides AKT. […] Given that most of the above-listed kinases have no known inhibitor, it is contemplated that the ZaTa could be used at micromolar concentrations in in vitro studies to inhibit the activity of the select kinases.

Abl = Abl (Homo sapiens, UniProt P00519); assay: in vitro kinase assay, selectivity; format: biochemical; design: dose or concentration left out as unconfirmed
Experimental: as §1

JAK3 = molecular target: T1, JAK3 (Homo sapiens, UniProt P52333); assay: in vitro kinase assay, selectivity; format: biochemical; design: dose or concentration left out as unconfirmed
T1 construct: phosphorylation levels of well-known intracellular substrates for each kinase; endogenous in cells
Experimental: as §1

PAK3 = PAK3 (Homo sapiens, UniProt O75914); assay: in vitro kinase assay, selectivity; format: biochemical; design: dose or concentration left out as unconfirmed
Experimental: as §1

SGK = molecular target: T2, SGK (Homo sapiens, UniProt O00141); assay: in vitro kinase assay, selectivity; format: biochemical; design: dose or concentration left out as unconfirmed
T2 construct: phosphorylation levels of well-known intracellular substrates for each kinase; endogenous in cells
Experimental: as §1

TrkB = TrkB (Homo sapiens, UniProt Q16620); assay: in vitro kinase assay, selectivity; format: biochemical; design: dose or concentration left out as unconfirmed
Experimental: as §1

p70S6K [1] = molecular target: T3, p70S6K (Homo sapiens, UniProt P23443); assay: in vitro kinase assay, selectivity; format: biochemical; design: dose or concentration left out as unconfirmed
T3 construct: phosphorylation levels of well-known intracellular substrates for each kinase; endogenous in cells
Experimental: as §1

p70S6K [2] = molecular target: T3, p70S6K; assay: cell-based kinase assay, phosphorylation of intracellular substrates
Experimental: To test the specificity/selectivity of ZaTa as the inhibitor of AKT1 versus the other major kinases, a series of in vitro kinase assays was performed at IC50 for AKT1 and at ten times higher concentrations. A panel of the following 32 kinases was first tested in vitro using the active form of each kinase and a specific substrate: AKT2, AKT3, PKA, PKCα, PKCγ, PI3Kβ, PI3Kδ, PI3Kγ, SGK, PAK2, PAK3, SAPK2/p38, Abl, CaMKII, CDK1/cyclinB, CDK5/p35, CK1, CK2, CSK, GSK3α, GSK3β, JNK1α1, MAPK1, p70S6K, PDGFRα, PDGFRβ, PDK1, PKG1α, TrkB, JAK2, JAK3, and Syk. […] However, at ten times higher concentration, ZaTa inhibited AKT2 (63%), PI3Kδ (72%), p70S6K (64%), SGK (73%), PAK3 (83%), JAK3 (79%), TrkB (84%), and Abl (42%). To confirm the in vitro inhibitory effect on these kinases in cells, a cell-based assay was used to determine the effect of labeled ZaTa on the phosphorylation levels of well-known intracellular substrates for each kinase (Zipfel, et al. (2004) Curr. Biol. 14:1222-1231; Wang, et al. (2003) Arch. Biochem. Biophys. 410:7-15; King, et al. (1998) Nature 396:180-183; Rangone, et al. (2004)Eur. J. Neurosci. 19:273-279; Middlemas, et al. (1994)J. Biol. Chem. 269:5458-5466; Huang, et al. (1999) J. Biol. Chem. 274:7870-7878). The results of this cell-based kinase assay confirmed that ZaTa could inhibit p70S6K besides AKT. […]

PKA, PKC, CDKs = assay: stereotactic injection into brain, phosphorylation of PKA, PKC and CDKs substrates; design: species or system mouse
Experimental: To analyze in vivo selectivity, ZaTa was injected into one hemisphere and DMSO in the other hemisphere, as above, and a series of western blot analyses was performed with phospho-specific antibodies which recognize a phosphorylated substrate or each one of the kinases that ZaTa inhibited at higher concentrations in vitro. […] Given the high functional and structural homology between p70S6K and AKT, the in vivo inhibitory effect of ZaTa on p70S6K was contemplated. Furthermore, the in vivo effect of ZaTa on the phosphorylation levels of substrates for PKA, PKC, CDKs using phospho-specific antibodies recognizing the phosphorylated consensus sites of these kinases was analyzed.
As a striatal specific substrate for PKA and CDK5, the phosphorylation level of DARPP-32 was determined at Thr-34 (the PKA site) or at Thr-75 (the CDK5 site) (Huang, et al. (1999) supra).

AKT-PKAc complex = molecular target: T4, AKT-PKAc complex (Mus musculus, UniProt P31750); assay: AKT immunoprecipitation from striatum after stereotactic injection; format: in vivo, C57BL/6 mouse; details: ZaTa vs vehicle hemisphere
T4 construct: ZaTa could disrupt the physical complex between AKT and PKAc in vivo; from tissue; host or cells: mouse striatum
Experimental: The phenotypic consequence of disrupting the AKT-PKAc complex was also determined. ZaTa peptide was injected into the striatum of one hemisphere of the brain and DMSO, as vehicle, was injected into the other brain hemisphere of an adult C57BL/6 mouse under anesthesia. The brain was removed and dissected. Equal protein amounts from each hemisphere were subjected to immunoprecipitation by an anti-AKT antibody. […] To compare PKAc protein levels in the ZaTa- and vehicle-treated brain hemisphere lysates, western blot analysis was conducted.

N2a cells = assay: AKT-PKAc complex and neurite count in cultured N2a neurons; format: cell-based; details: 24 hours treatment
Experimental: Accordingly, the stability and phenotypic consequences of the AKT-PKAc complex was also analyzed in cultured neurons. N2a cells were treated with vehicle, ZaTa or control peptide for 24 hours. Media was removed after the 24-hour treatment and an equal number of cells from each treatment group was either cultured for another 24 hours without treatment, or lysed and subjected to immunoprecipitation with an antibody against AKT. Those cells cultured for another 24 hours were also harvested and subjected to immunoprecipitation. In parallel, the number of individual neurons with neurites was counted. […] Live images of N2a neurons were captured following treatment with vehicle or ZaTa (2 or 5 μM). […] ZaTa-mediated changes included a progressive loss of neurites, inhibition of new neurite formation, loss of cell motility, as well as formation of large cell colonies.

primary neurons = assay: TUNEL assay in primary cortical culture; format: cell-based; details: 1 μM or 5 μM, 72-hour treatment, vs control peptide
Experimental: It is now well-established that AKT protects against apoptosis through phosphorylation and inhibition of pro-apoptotic mediators such as BAD, FOXO family members and IKK-β (Datta, et al. (1999) Genes Dev. 13:2905-2927). […] Primary neurons were treated with DMSO, 1 μM or 5 μM of either ZaTa or the control peptide for a duration of 1, 3, 16, 24, 48 or 72 hours. The number of apoptotic cells was counted following the TUNEL assay. […] The increase in the number of apoptotic neurons following treatment with ZaTa was consistent with its potent intra-neuronal inhibition of AKT.

T3 sequence (P23443 whole entry): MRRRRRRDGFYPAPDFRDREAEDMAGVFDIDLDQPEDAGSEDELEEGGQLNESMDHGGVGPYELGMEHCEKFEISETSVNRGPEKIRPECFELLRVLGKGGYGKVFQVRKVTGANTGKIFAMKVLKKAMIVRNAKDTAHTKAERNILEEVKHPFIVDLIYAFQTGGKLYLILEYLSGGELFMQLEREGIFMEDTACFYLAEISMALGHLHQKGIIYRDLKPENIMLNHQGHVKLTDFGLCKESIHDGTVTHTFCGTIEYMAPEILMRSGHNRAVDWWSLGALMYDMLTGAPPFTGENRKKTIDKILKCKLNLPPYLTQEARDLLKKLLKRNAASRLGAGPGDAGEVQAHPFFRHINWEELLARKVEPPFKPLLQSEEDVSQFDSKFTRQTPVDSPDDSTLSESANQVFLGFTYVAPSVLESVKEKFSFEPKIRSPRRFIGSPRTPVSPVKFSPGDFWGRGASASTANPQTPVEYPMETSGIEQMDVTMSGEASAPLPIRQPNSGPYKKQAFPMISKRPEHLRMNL
Sequence of AKT (P31749 whole entry, the tested form may be a part): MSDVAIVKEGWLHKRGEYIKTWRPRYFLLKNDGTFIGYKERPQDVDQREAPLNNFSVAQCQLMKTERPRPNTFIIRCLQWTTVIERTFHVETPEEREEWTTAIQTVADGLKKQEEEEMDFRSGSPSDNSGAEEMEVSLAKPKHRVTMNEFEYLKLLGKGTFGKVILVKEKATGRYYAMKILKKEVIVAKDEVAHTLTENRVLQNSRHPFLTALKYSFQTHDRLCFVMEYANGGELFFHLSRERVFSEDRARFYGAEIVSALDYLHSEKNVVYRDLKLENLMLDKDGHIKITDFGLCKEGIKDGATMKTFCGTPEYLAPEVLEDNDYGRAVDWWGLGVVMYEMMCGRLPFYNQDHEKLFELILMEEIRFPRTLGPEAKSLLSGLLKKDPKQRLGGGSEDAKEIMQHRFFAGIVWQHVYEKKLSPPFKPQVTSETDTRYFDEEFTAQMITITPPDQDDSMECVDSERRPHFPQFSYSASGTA
Sequence of TrkB (Q16620 32-822, species assumed): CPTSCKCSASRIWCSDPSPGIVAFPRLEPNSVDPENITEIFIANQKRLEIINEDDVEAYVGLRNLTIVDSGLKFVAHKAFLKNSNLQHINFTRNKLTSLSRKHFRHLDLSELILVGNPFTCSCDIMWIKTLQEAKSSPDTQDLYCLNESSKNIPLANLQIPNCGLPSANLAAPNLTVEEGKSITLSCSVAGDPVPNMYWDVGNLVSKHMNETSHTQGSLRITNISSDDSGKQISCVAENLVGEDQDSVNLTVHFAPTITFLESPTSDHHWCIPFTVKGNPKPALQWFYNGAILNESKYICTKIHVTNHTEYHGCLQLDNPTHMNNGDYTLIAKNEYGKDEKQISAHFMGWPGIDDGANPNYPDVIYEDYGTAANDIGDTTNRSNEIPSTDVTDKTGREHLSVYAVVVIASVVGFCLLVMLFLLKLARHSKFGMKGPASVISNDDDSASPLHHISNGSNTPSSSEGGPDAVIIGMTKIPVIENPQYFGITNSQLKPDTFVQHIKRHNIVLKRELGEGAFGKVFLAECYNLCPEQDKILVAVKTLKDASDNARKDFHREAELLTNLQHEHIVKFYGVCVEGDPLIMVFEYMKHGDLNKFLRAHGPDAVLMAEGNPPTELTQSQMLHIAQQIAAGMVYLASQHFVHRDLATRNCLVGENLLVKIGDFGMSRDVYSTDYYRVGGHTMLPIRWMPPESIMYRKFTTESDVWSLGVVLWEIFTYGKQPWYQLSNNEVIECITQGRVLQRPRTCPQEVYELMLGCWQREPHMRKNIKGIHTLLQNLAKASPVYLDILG
T1 sequence (P52333 whole entry, species assumed): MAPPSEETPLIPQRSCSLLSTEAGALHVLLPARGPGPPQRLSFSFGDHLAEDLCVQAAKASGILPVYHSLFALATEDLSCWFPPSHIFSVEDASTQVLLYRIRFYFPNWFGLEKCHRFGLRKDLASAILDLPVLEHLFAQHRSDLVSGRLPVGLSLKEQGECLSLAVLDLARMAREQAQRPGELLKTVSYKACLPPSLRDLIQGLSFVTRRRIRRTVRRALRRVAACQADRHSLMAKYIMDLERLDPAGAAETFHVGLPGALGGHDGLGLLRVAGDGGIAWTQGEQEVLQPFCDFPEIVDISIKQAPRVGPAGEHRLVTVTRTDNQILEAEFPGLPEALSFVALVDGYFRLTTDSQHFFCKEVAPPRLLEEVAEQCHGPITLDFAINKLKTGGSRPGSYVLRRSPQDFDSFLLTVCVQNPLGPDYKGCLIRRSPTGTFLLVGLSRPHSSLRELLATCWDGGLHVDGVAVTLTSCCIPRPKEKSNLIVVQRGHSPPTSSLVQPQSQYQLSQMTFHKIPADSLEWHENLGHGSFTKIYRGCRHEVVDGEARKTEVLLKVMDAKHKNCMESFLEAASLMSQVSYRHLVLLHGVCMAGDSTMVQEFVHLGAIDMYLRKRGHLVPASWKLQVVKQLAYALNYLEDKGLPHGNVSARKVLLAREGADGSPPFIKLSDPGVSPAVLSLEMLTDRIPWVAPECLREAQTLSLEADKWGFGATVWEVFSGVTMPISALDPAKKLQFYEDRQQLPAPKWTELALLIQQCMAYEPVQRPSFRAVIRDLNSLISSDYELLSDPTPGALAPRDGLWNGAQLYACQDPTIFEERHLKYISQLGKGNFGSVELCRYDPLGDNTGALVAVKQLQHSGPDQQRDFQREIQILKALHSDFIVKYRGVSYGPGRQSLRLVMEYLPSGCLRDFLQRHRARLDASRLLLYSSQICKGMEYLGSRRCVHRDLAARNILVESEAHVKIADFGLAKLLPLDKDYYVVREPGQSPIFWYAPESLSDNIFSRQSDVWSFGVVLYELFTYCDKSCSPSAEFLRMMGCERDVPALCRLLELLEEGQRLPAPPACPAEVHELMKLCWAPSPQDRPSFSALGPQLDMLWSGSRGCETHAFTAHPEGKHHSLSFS
T4 sequence (P31750 whole entry, one chain of several): as the sequence (P31749 whole entry, the tested form may be a part) above, with S2N, A50S, T100A, K112R, E117T, K389T, G410N, H415D counted along it
Sequence of PAK3 (O75914 whole entry, species assumed): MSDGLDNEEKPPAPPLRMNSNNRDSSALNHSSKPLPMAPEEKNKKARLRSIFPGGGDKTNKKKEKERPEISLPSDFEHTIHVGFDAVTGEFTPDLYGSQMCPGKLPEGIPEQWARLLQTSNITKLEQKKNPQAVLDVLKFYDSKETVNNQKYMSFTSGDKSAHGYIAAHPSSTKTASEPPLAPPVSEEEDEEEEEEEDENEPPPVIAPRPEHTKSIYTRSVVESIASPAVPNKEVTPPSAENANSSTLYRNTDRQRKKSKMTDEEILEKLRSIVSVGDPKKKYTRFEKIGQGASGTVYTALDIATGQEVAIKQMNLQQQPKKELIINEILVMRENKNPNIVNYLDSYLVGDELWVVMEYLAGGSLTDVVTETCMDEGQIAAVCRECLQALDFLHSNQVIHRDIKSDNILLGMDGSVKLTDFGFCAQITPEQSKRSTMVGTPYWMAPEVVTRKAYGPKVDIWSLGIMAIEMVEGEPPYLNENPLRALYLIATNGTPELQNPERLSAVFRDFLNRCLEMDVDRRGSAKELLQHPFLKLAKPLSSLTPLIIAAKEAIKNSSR
T2 sequence (O00141 whole entry, species assumed): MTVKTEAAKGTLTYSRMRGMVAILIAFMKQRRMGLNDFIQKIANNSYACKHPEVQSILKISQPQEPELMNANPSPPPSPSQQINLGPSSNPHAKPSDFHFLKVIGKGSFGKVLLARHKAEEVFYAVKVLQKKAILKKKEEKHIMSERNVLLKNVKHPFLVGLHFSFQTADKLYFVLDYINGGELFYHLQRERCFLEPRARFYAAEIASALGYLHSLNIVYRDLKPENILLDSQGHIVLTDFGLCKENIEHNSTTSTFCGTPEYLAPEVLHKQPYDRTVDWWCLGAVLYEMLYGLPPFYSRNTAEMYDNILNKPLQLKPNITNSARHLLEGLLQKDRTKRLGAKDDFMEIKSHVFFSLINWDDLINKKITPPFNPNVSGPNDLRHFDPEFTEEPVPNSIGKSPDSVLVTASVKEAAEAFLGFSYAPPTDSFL
Sequence of AKT2 (P31751 whole entry, species assumed): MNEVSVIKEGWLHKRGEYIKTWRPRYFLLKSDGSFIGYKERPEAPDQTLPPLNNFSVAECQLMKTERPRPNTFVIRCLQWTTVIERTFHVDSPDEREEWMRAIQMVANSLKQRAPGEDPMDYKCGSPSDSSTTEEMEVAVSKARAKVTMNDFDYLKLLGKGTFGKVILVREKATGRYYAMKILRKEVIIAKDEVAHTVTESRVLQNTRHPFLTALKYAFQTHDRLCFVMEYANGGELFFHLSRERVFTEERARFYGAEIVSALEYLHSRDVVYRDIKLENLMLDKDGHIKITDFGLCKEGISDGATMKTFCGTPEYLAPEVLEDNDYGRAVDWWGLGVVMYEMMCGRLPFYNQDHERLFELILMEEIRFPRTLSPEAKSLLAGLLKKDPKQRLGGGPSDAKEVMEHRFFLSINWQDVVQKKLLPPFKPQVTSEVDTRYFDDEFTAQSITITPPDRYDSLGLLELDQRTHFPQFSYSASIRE

AKRVKGRTWTLCGTPEY [Peptide 53, A-K-R-V-K-G-R-T-W-T-L-C-G-T-P-E-Y]
inhibitory effect on catalytic activity of AKT (AKT): significant inhibitory effects | inhibitory effect on catalytic activity of AKT (AKT; listed as ZaTa): significantly reduced | inhibition (AKT2): 63% | inhibition (Abl): 42% | inhibition (JAK3): 79% | inhibition (PAK3): 83% | inhibition (SGK): 73% | inhibition (TrkB): 84% | inhibition (p70S6K [1]): 64% | inhibition of p70S6K in cells (p70S6K [2]): could inhibit | phosphorylation level of PKA, PKC and CDKs substrates in vivo (PKA, PKC, CDKs): significant changes in the phosphorylation level of PKA, PKC and CDKs substrates was not observed | amount of PKAc in physical contact with AKT (AKT-PKAc complex): dramatically reduced | amount of PKAc in physical contact with AKT (N2a cells): reduced the amount of PKAc in physical contact with AKT | number of neurons with neurites (N2a cells): significant reduction in the number of neurons with neurites | number of TUNEL-positive cells (primary neurons): marked dose-dependent increase in the number of TUNEL-positive cells
